Patent US11406649B2, “Treatment of upper aerodigestive tract disorders and cough” (IVIEW THERAPEUTICS, INC., priority 2018, dated 2022)
In brackets after ≈: the same amount, converted by molar mass. Entries after “also recorded” stand apart in the source; their conditions may differ. One block for each compound: values may come before it.

Key:
cloned hTRPM8 channel = cloned hTRPM8 channel (Homo sapiens (Human), UniProt Q7Z2W7); experiment: TRPM8 agonist activity, Fluo-8 calcium FLIPR assay (ChanTest); type: cell-based; conditions: for Relative Potency to L-menthol: L-menthol = 1.0; for TRPM8 bioactivity: structural modifications
Procedure: In the first set of data, the potency and in vitro effects of test compounds were evaluated on cloned hTRPM8 channel (encoded by the human TRPM8 gene, expressed in CHO cells) using a Fluo-8 calcium kit and a Fluorescence Imaging Plate Reader (FLIPR^TETRA™) instrument. […] Test solutions were in a HEPES-buffered saline, in 384-well plates, and placed into the FLIPR instrument (Molecular Devices Corporation, Union City, Calif., USA). […] The test cells were Chinese Hamster Ovary (CHO) cells stably transfected with human TRPM8 cDNAs. Concentration-response data were analyzed via FLIPR Control software) and fitted to a Hill equation for the EC50.

anesthetized rat = experiment: In vivo transdermal activity: shaking after topical application to abdominal skin of anesthetized rat; conditions: pure compound 20 μL on abdominal skin, counted 40 min
Procedure: Shaking frequency was counted for 40 min after topical application.
The importance of water solubility for permeation was further illustrated in studies on the abdominal skin of anesthetized rat. […] The pharmacokinetic determinants of bioactivity are precise. Thus, for the avoidance of cold discomfort, DIPA-1-9 has to reach the receptors in the stratum basale but not “over-stimulate”.

oropharynx and esophagus = experiment: Sensory events and cold discomfort of compounds on throat, chest and body; conditions: for icy cold / pain in throat: DIPA-1-9 up to 12 mg per unit; for taste: oral cavity / tongue; for sensory side-effects: menthol 5 mg in an orally dissolving tablet
Oral Cavity and Pharynx = experiment: Sensory qualities of compounds in syrup applied to base of tongue of volunteers; type: in vivo, human; conditions: for sensory effects / Sensation: 5 mg/mL in cherry-flavored syrup; for Sensation: ~0.8 mL; for duration of unpleasant tastes: metallic, organic solvent-like, harsh
Procedure: The DIPA compounds was 5 mg/mL in cherry-flavored syrup in a volume of 0.8 mL per dose. The sensory effect were recorded every 5 min for 1 hr.
Tests were on four volunteers, with 3 to 5 trials per substance. Compounds were prepared in cherry-flavored syrup at 5 mg/mL and administered ˜0.8 mL per dose with a 2 mL plastic vial to the base of the tongue. The subjects asked to rate the sensations for cooling intensity, cold discomfort and adverse taste.
The concentration of the DIPA compounds was 5 mg/mL in cherry-flavored syrup administered in a volume of 0.8 mL per dose. The sensory effect were recorded every 5 min for 1 hr.

[1] = Water solubility of 1-dialkylphosphorylalkanes; type: physicochemical; conditions: water
Text: The DIPA compounds are colorless liquids with a density less than water. These structures differ from those described by Rowsell and Spring U.S. Pat. No. 4,070,496 because '496 structures have their “head” (phosphine oxide group) covered by larger, more lipophilic groups. […] The applicant synthesized these analogs (which are achiral, by contrast to the structures of '496 which are >95% chiral). […] This increased water-solublility is striking (Table 3). […] The DIPA analogs are now mobile in the extracellular fluids and permeate between cells to access nerve endings in the stratum basale.

[2] = system: acid-induced swallowing movements; experiment: Suppression of acid-induced swallowing movements in the anesthetized rat; type: in vivo
Text: A principal endogenous irritant in the linings of the upper aerodigestive tract is hydrochloric acid. Acid stimulations of the mucosa of the pharynx will elicit reflex swallowing. […] In a rat animal model, solutions of organic acids such as acetic acid and citric acid were effective in eliciting swallowing [Kajii et al., Sour taste stimulation facilitates reflex swallowing from the pharynx and larynx in the rat Physiology & Behavior 77: 321-325, 2002]. These methods for measuring sensory responses to acid can be adapted for screening the activity of DIPA-1-9. An agent that stimulates swallowing or an agent that suppress the acid challenge may then have utility in relieving dysphagia or the discomfort of heartburn, respectively. Preliminary experiments were conducted at the Pavlov Institute of Physiology, St. Petersburg, Russia, using adult male Wistar rats (see Table 11) and Wei (US 0.2015/0111852 A1). Swallowing movements was identified as the electromyogram activity and could also be visualized as laryngeal movement. Work is in progress to get more results for DIPA-1-9.

TRPM8 = TRPM8 (Mus musculus (Mouse), UniProt Q8R4D5); experiment: TRPM8 Fura-2 calcium assay in transfected CHO cells (Andersson et al.); type: cell-based; conditions: FIG. 4
Procedure: FIG. 4. is a graph of fluorescence response (Δ ratio 340/380) in TRPM8 transfected cells as a function of the logarithm of the concentration of the test compound, expressed in μM, for DIPA-1-7 (black circle), 3,4-7 (open squares), or 3,4-6 (open triangles). The assays were conducted by Andersson et al. of King's College, London, UK, using his methods described in “Modulation of the cold-activated channel TRPM8 by lysophospholipids and polyunsaturated fatty acids. Journal Neuroscience 27 (12): 3347-3355, 2007.
In a second set, tests were made on “mixed” isopropyl-sec-butylphosphorylhexane and heptane analogs described as 3,4-6 and 3,4-7 in Table 2, and results shown in FIG. 4. […] Emission intensity from cells was measured for 90 sec, at every 4 or 5 sec, using excitation wavelengths of 340 and 380 nm and an emission of 520 nm. Fluorescence emission intensity ratios at 340 nm/380 nm excitation (R, in individual cells) were recorded with a FlexStation and the ImageMaster suite of software (PTI, South Brunswick, N.J.). Samples were tested in triplicate at each concentration and the averaged values analyzed by non-linear regression using an a sigmoidal function fit of the points to obtain an estimated EC50 (median effective concentration) (GraphPad Prism software, La Jolla, Calif.). […]

[3] = Flux through excised hairless mouse skin in vitro; type: in vitro ADME
Procedure: Test chemicals dissolved in a gel were placed in an incubation well for 8 hr and the permeated amount of the chemical measured by a high pressure liquid chromatograph equipped with a refractive detector. These tests were conducted by Prof Choi of Chosun University, Korea. The flux of DIPA-1-7 was ˜5× greater than DIPA-1-9.
To further study the skin permeation of DIPA compounds, tests were conducted on the flux of DIPA-1-7 and DIPA-1-9 through excised hairless mouse skin in vitro. These tests were conducted by Prof Choi, Dean of the School of Pharmacy of Chosun University, Korea, and the results shown in (FIG. 5).

[4] = system: dorsal surface of the tongue; conditions: average of 6 subjects; cited from earlier work

Chain of cloned hTRPM8 channel (Q7Z2W7 whole entry): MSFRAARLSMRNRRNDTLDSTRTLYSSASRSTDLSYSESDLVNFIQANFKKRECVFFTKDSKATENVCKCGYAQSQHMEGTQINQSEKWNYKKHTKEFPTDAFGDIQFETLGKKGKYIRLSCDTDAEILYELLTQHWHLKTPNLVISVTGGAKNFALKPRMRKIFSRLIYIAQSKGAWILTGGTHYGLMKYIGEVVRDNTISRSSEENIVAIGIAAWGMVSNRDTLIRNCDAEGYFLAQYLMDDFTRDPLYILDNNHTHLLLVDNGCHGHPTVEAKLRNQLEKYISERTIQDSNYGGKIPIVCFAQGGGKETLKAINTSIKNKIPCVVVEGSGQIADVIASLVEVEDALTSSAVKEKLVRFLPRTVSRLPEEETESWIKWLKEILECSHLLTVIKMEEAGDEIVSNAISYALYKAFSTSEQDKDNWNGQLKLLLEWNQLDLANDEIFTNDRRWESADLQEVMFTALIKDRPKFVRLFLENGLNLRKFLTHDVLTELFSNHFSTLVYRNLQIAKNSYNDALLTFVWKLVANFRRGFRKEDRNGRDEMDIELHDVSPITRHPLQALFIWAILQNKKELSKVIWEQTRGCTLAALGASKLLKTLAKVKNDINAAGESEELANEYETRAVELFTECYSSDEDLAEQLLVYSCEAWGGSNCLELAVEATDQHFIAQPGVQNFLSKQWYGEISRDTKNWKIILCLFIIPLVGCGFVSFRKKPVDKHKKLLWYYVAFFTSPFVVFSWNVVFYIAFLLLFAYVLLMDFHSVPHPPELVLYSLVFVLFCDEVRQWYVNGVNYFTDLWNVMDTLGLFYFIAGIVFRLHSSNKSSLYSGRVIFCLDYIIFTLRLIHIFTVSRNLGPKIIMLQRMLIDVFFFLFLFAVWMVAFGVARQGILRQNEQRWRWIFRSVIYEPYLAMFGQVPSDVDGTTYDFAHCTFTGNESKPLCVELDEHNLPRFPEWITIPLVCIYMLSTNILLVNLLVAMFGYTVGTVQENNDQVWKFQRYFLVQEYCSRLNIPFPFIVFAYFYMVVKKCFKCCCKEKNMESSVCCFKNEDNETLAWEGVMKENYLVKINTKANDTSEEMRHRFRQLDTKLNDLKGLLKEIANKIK
Chain of TRPM8 (Q8R4D5 whole entry): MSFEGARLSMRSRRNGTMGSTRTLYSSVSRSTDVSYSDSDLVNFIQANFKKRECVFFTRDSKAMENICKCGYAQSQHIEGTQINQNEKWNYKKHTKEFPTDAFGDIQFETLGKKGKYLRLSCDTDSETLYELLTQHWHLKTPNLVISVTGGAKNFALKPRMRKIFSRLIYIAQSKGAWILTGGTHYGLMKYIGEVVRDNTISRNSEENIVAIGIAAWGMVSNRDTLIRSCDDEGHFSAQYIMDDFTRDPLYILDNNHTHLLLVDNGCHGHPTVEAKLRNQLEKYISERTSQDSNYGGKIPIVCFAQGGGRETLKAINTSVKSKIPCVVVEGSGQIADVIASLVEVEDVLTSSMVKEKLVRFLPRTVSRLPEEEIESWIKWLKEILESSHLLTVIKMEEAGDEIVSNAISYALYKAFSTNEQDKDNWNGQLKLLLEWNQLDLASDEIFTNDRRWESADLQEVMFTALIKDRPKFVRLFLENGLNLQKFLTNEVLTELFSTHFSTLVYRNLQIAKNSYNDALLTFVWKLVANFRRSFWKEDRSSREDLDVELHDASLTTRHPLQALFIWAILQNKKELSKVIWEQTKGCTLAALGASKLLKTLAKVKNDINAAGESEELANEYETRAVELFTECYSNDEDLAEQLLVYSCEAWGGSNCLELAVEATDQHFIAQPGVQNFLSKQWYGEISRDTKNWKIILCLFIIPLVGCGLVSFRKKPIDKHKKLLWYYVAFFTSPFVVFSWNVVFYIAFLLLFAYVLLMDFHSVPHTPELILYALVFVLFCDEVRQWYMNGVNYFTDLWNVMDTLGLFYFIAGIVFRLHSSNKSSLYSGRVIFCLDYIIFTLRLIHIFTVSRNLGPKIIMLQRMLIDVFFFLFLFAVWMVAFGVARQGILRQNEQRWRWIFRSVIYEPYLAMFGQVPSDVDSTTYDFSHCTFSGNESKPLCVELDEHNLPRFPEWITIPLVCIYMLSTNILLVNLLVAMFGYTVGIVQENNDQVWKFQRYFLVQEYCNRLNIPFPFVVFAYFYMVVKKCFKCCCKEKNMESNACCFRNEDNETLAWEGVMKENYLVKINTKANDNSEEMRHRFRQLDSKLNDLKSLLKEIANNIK

- Relative Potency to L-menthol (cloned hTRPM8 channel): 0.2
- TRPM8 bioactivity (cloned hTRPM8 channel): significant loss of bioactivity
Structure (SMILES): CCCCCP(=O)(CC(C)C)CC(C)C [DAPA-3-1, 1-di(iso-butyl) phosphinoyl-pentane]

- Relative Potency to L-menthol (cloned hTRPM8 channel): 0.9
- TRPM8 bioactivity (cloned hTRPM8 channel): significant loss of bioactivity
Structure (SMILES): CCC(C)P(=O)(CCC(C)C)C(C)CC (centres unmarked) [DAPA-3-2, 1-Di(sec-butyl) phosphinoyl-3-methyl-butane]

- Relative Potency to L-menthol (cloned hTRPM8 channel): 0.7
Structure (SMILES): CCCCCP(=O)(C(C)C)C(C)C [DIPA-1-5, 1-Di(isopropyl)-phosphinoyl-pentane]
- shaking after topical application (anesthetized rat): robust shaking

Structure (SMILES): CCCCCCP(=O)(C(C)C)C(C)C [DIPA-1-6, 1-Di(isopropyl)-phosphinoyl-hexane]
- shaking after topical application (anesthetized rat): robust shaking
- icy cold / pain in throat (oropharynx and esophagus): icy cold
- Relative Potency to L-menthol (cloned hTRPM8 channel): 1.6

Structure (SMILES): CCCCCCCP(=O)(C(C)C)C(C)C [DIPA-1-7, 1-Di(isopropyl)-phosphinoyl-heptane]
- sensory effects (Oral Cavity and Pharynx): cold, icy cold, and adverse tastes; also recorded: icy pain in the back of the throat
- Sensation (Oral Cavity and Pharynx): painful cold
- duration of unpleasant tastes (Oral Cavity and Pharynx): at least 15 min
- solubility [1]: > 300 mg/mL
- shaking after topical application (anesthetized rat): vigorous shaking; also recorded: robust shaking
- EC50 ([2]; anesthetized rat): 820 ± 80 µg/mL (≈ 3.53 mM)
- Relative Potency ([2]; suppression of acid-induced swallowing): 0.11
- potency for activation of TRPM8 relative to 3,4-6 (TRPM8): ~10 ×
- potency for activation of TRPM8 relative to 3,4-7 (TRPM8): ~5 ×
- penetration of excised skin [3]: very active in penetrating the excised skin
- flux relative to DIPA-1-9 ([3]; gel, 8 hr): ~5 ×
- decrease in rate of permeation by added standard enhancers ([3]; propylene glycol-oleyl alcohol (50:50) or Lauroglycol 90 added to gel): ~50%
- icy cold / pain in throat (oropharynx and esophagus): icy cold
- cold in the chest / behind sternum (oropharynx and esophagus; in vivo): spreads behind the sternum, into the chest
- taste (oropharynx and esophagus): this taste is present
- Relative Potency to L-menthol (cloned hTRPM8 channel): 5.4
- TRPM8 Relative Potency (cloned hTRPM8 channel; Table 8, DIPA-1-7 = 1): 1

Structure (SMILES): CCCCCCCCP(=O)(C(C)C)C(C)C [DIPA-1-8, 1-Di(isopropyl)-phosphinoyl-octane]
- sensory effects (Oral Cavity and Pharynx): cold, icy cold, and adverse tastes
- Sensation (Oral Cavity and Pharynx): cold
- duration of unpleasant tastes (Oral Cavity and Pharynx): at least 15 min
- solubility [1]: > 300 mg/mL
- taste (oropharynx and esophagus): this taste is present
- Relative Potency to L-menthol (cloned hTRPM8 channel): 5.4

Structure (SMILES): CC(C)[C@@H]1CC[C@@H](C)C[C@H]1O [Menthol, reference compound]
- Threshold, μg (cooling on tongue) [4]: 0.25 µg
- sensory side-effects (oropharynx and esophagus): chest discomfort

Structure (SMILES): O=C1NC(c2cccc([N+](=O)[O-])c2)=CCN1c1ccccc1O [icilin, reference compound]
- sensory side-effects (oropharynx and esophagus): did not produce cooling in the chest or the desired sensations on the throat
